Laboratory results: patent US20220362353A1, “DRUG COMBINATION FOR PREVENTING OR TREATING IRRITABLE BOWEL SYNDROME” (GUANGZHOU CENTURY CLINICAL RESEARCH CO., LTD, priority 2019, published 2022)

Experiments:
[1] = system: irritable bowel syndrome model animals; assay: Abdominal withdrawal reflex (AWR) test after colorectal distension; type: in vivo, SD rats (Sprague-Dawley rats); settings: for Abdominal withdrawal reflex scores of colorectal distension at different pressures (mean ± SD): 3 months old, after 1-month daily gavage, score 0-4
Method: In this example, the irritable bowel syndrome model was induced by daily applying colorectal distension as a stimulating factor to neonatal SD rats (Sprague-Dawley rats) from 8 days old to 21 days old. This model animal had visceral hypersensitivity of irritable bowel syndrome and without colonitis and mucosal injury. Colorectal distension stimulation was not given any more from 21 days old to 8 weeks old. A test drug or placebo was administered daily by gavage from 8 weeks old to 3 months old. On the 8 weeks old (before the beginning of the 1-month drug administration period) and about 3 months old (after the end of the 1-month drug administration period), behavioral and neural responses of rats to colorectal distention stimulation were tested by an abdominal wall withdrawal reflex test and an electromyography test. 8-day-old neonatal male SD rats with normal body weight were exposed to a 12:12 hr light-dark cycle. Every 12 neonatal rats and 1 adult female rat were co-bred with rat milk until 25 days old. Then every 4 neonatal rats were fed in the same cage, and they were allowed to eat and drink freely. The SD rats were randomly divided into a normal control group, a model group, a dosmalfate group, a lysozyme group, a first combination group (a dosage ratio of dosmalfate to lysozyme was 0.05:1), a second combination group (a dosage ratio of dosmalfate to lysozyme was 0.1:1), a third combination group (a dosage ratio of dosmalfate to lysozyme was 10:1), and a fourth combination group (a dosage ratio of dosmalfate to lysozyme was 20:1), and 12 animals were assigned to each group. Except for normal control group, colorectal distension (CRD) stimulation was applied to the rats in other groups every day from 8 days old to 21 days old to induce irritable bowel syndrome. The concrete operation method was as follows: a flexible balloon (with a polytetrafluoroethylene catheter; the balloon should be inflated overnight before the experiment so that it has better compliance) made of the fingers of surgical gloves, was smeared with vaseline, inserted from the anus of the rat to the colon and then fixed at the tail distanced away from the anus by 2 cm. The balloon was connected with a valve via the catheter, and the valve was additionally connected with a sphygmomanometer. Rats were placed in small plastic cages to restrict their turning and acclimatized for 30 minutes. The balloon was slowly inflated to 60 mm Hg with the sphygmomanometer, and deflated after stimulation for 20 seconds; the stimulation was repeated twice within 1 hour (with an interval of 30 minutes each time). Except for normal control group and model group, test drugs (wetted in 0.5% sodium carboxymethyl cellulose solution) were administrated to the rats in the other groups by gavage daily from 8 weeks old to 3 months old, and the dosage was 8 ml. The abdominal wall withdrawal reflex test was used to detect behavioral responses of rats to colorectal distension stimulation. This test was performed when rats in respective groups were 8 weeks old (before the start of the 1-month drug administration period) and 3 months old (after the end of the 1-month drug administration period). The rats were fasted overnight before undergoing the abdominal wall withdrawal reflex test, so as to reduce gastrointestinal contents. During the test, a flexible balloon (with a thin-walled polytetrafluoroethylene catheter; the balloon should be inflated overnight before the experiment so that it has better compliance) made of the fingers of surgical gloves, was smeared with vaseline and inserted from the anus of the rat by 7 cm to the colon and fixed at the caudal point by 2 cm distanced away from the anus. The balloon was connected with the valve via the catheter, and the valve was additionally connected with a sphygmomanometer. Rats were placed in small plastic cages to restrict their turning and acclimatized for 30 minutes. […]

[2] = system: irritable bowel syndrome model animals; assay: Electromyography (EMG) test of external oblique abdominal muscles after colorectal distension; type: in vivo, SD rats (Sprague-Dawley rats); settings: for AUC (%) of EMG of colorectal distension at different pressures (mean ± SD): 3 months old, after 1-month daily gavage, normalized to average baseline amplitude (100%)
Method: In this example, the irritable bowel syndrome model was induced by daily applying colorectal distension as a stimulating factor to neonatal SD rats (Sprague-Dawley rats) from 8 days old to 21 days old. This model animal had visceral hypersensitivity of irritable bowel syndrome and without colonitis and mucosal injury. Colorectal distension stimulation was not given any more from 21 days old to 8 weeks old. A test drug or placebo was administered daily by gavage from 8 weeks old to 3 months old. On the 8 weeks old (before the beginning of the 1-month drug administration period) and about 3 months old (after the end of the 1-month drug administration period), behavioral and neural responses of rats to colorectal distention stimulation were tested by an abdominal wall withdrawal reflex test and an electromyography test. 8-day-old neonatal male SD rats with normal body weight were exposed to a 12:12 hr light-dark cycle. Every 12 neonatal rats and 1 adult female rat were co-bred with rat milk until 25 days old. Then every 4 neonatal rats were fed in the same cage, and they were allowed to eat and drink freely. The SD rats were randomly divided into a normal control group, a model group, a dosmalfate group, a lysozyme group, a first combination group (a dosage ratio of dosmalfate to lysozyme was 0.05:1), a second combination group (a dosage ratio of dosmalfate to lysozyme was 0.1:1), a third combination group (a dosage ratio of dosmalfate to lysozyme was 10:1), and a fourth combination group (a dosage ratio of dosmalfate to lysozyme was 20:1), and 12 animals were assigned to each group. Except for normal control group, colorectal distension (CRD) stimulation was applied to the rats in other groups every day from 8 days old to 21 days old to induce irritable bowel syndrome. The concrete operation method was as follows: a flexible balloon (with a polytetrafluoroethylene catheter; the balloon should be inflated overnight before the experiment so that it has better compliance) made of the fingers of surgical gloves, was smeared with vaseline, inserted from the anus of the rat to the colon and then fixed at the tail distanced away from the anus by 2 cm. The balloon was connected with a valve via the catheter, and the valve was additionally connected with a sphygmomanometer. Rats were placed in small plastic cages to restrict their turning and acclimatized for 30 minutes. The balloon was slowly inflated to 60 mm Hg with the sphygmomanometer, and deflated after stimulation for 20 seconds; the stimulation was repeated twice within 1 hour (with an interval of 30 minutes each time). Except for normal control group and model group, test drugs (wetted in 0.5% sodium carboxymethyl cellulose solution) were administrated to the rats in the other groups by gavage daily from 8 weeks old to 3 months old, and the dosage was 8 ml. The visceral hypersensitivity (neural response) of rats to colorectal distension was quantified by measuring the electromyographic activity of external oblique abdominal muscles. When the rats in each group were 3 months old (after the end of the 1-month drug administration period), they were subjected to abdominal wall withdrawal reflex test followed by EMG test after abdominal wall withdrawal reflex test. On the second day when 3-month-old rats in each group were subjected to abdominal wall withdrawal reflex test, an appropriate amount of pentobarbital solution (50 mg/ml) was injected into the abdominal cavities of the rats, and the rats were fully anesthetized. The hairs on the lower abdomen and the back of the neck were cut, a needle electrode (tungsten microelectrode) was implanted into the left side of the abdomen of the rat, fixed in the muscle layer of the external oblique abdominal muscle, and the electrode wire was crossed through the subcutaneous of the left side of the rat to a small incision at the rear neck and out of the small incision. […]

Row | Substance | Abdominal withdrawal reflex scores of colorectal distension at different pressures (mean ± SD) ([1]; 20 mm Hg) | Abdominal withdrawal reflex scores of colorectal distension at different pressures (mean ± SD) ([1]; 40 mm Hg) | Abdominal withdrawal reflex scores of colorectal distension at different pressures (mean ± SD) ([1]; 60 mm Hg) | abdominal wall withdrawal reflex values compared with model group, in words ([1]; after administration) | AUC (%) of EMG of colorectal distension at different pressures (mean ± SD) ([2]; 20 mm Hg) [%] | AUC (%) of EMG of colorectal distension at different pressures (mean ± SD) ([2]; 40 mm Hg) [%] | AUC (%) of EMG of colorectal distension at different pressures (mean ± SD) ([2]; 60 mm Hg) | EMG test result compared with model group, in words ([2]; after administration)
1 | Lysozyme | 2.11 ± 0.33 | 2.69 ± 0.41 | 3.56 ± 0.36 | no significant difference | 303 ± 36 | 394 ± 60 | 601 ± 60 ^ % | no significant difference
2 | diosmin heptadiene (bisulfate) aluminum complex [Dosmalfate, reference compound] | 2.25 ± 0.45 | 2.56 ± 0.30 | 3.64 ± 0.30 |  | 332 ± 39 | 445 ± 99 | 644 ± 117 ^ % | 
